Reference: patent publication US20230105599A1, “Aqueous Formulations Containing Povidone Iodine for Effective Treatment and Prevention of Virus Infections” (priority 2020, published 2023)
Like-named read-outs stand apart in the source and are kept apart here.

Legend:
Assay type in all cases: cell-based
[1] = system: Human Adenovirus Type 5; assay: In-vitro anti-viral (virucidal) assay, cytopathic effect study with human AE549 cells; settings: 70% ethanol
Method: To determine whether contact with aqueous formulation of this invention containing 0.6% PVP-I inactivates (“kills”) virus, the aqueous formulation was mixed directly with virus for 30±5 minutes, then neutralized and the surviving virus was quantified.

[2] = system: SARS-CoV-2; settings: 45% ethanol control, 37° C.; for Viral Titer: mean of 3 ± SD
[3] = system: Influenza Virus A H1N1, California July 2009; assay: In vitro virucidal assay, endpoint dilution CCID50 on MDCK cells; settings: 95% ethanol control, 37° C.
Method: Formulation B containing 0.6% PVP-I (for nasal spray) was tested for virucidal assay against influenza virus (Influenza Virus A H1N1, California July 2009). Formulation B was diluted with artificial nasal fluid as follows: neat, 1/1.8, 1/3.2 and 1/10. Other controls were 95% ethanol and MEM solution. Virus solution was added to test dilution at 1/10 and incubated for 30 seconds and 2 minutes at 37° C. And thus, the final concentration of solution tested were 90%, 50%, 28% and 9%. Following the incubation period, samples were neutralized by a 1/10 dilution in test media containing 10% FBS. The surviving virus in each tube was determined using a standard endpoint dilution CCID50 assay as follows. Samples were diluted 1/10 in series and each dilution added to 4 replicate columns of 96-well plates seeded with 80-100% confluent MDCK cells. Plates were incubated for 6 days at 37° C. with 5% CO2 then scored for the presence or absence of cytopathic effect (CPE). Virus titer (CCID50) was calculated using the Reed-Muench method (1948). The log reduction value (LRV) of the compound compared to the virus control was calculated. The entire procedure was repeated in triplicate. Toxicity controls were performed to show whether test compound toxicity would confound results by killing the cells in the absence of virus.

CCO [Ethanol]
virucidal effect of ethanol control [1]: fully effective | LRV (log reduction value) ([2]; contact time 0.5 min): 3.5 | Viral Titer ([2]; contact time 0.5 min): <1.7 ± 0.0 Log10 CCID50 of virus per mL | LRV (log reduction value) ([2]; contact time 2 min): 1.9 | Viral Titer ([2]; contact time 2 min): <1.7 ± 0.0 Log10 CCID50 of virus per mL | LRV (log reduction value) ([2]; contact time 10 min): 3.3 | Viral Titer ([2]; contact time 10 min): <0.67 ± 0.0 Log10 CCID50 of virus per mL | LRV (log reduction value) ([3]; contact time 0.5 min): 1.5 | Viral Titer ([3]; contact time 0.5 min): 4.5 Log10 CCID50 of virus per mL | LRV (log reduction value) ([3]; contact time 2 min): 4.4 | Viral Titer ([3]; contact time 2 min): 2.3 Log10 CCID50 of virus per mL
